Measured values as given in patent US20060062865A1, “Tyrosinase inhibitor and method for preparation” (priority 2004, published 2006).

System: mushroom tyrosinase
Assay: Mushroom tyrosinase in vitro enzyme assay (absorbance at 492 nm)
Type: biochemical
Details: in vitro tyrosinase (mushroom) enzyme activity
Method: Enzyme assay. The mushroom tyrosinase was used for the bioassay. It was purchased from Sigma Chemical Co. (St. Louis, Mo.). The assay was performed by adding 200 microliters of reaction cocktail (mixture of potassium phosphate buffer 50 mM, pH 6.5, 10 ml; 1 mM tyrosine solution, 10 ml and deionized water, 9 ml) and 10 microliters of tested extract dissolved in ethanol at concentration of 1 mg/ml followed by 10 microliters of tyrosinase (1000 units/ml) to 96-well plate. After 2 min incubation at room temperature, the initial absorbance was read at 492 nm on the plate reader. Final absorbance values were read after 10 minutes. The enzyme activity was calculated from the differential values for absorbance and then converted into inhibitory activity. Kojic acid was used as standard at a concentration of 1 mg/ml dissolved in 95% ethanol.

O=c1cc(CO)occ1O [Kojic acid]
Inhibition at 1 mg/ml (sample 1 mg/ml in ethanol, tyrosine substrate, Table 1 experiment): 88%
Inhibition at 1 mg/ml (sample 1 mg/ml, extracts of different plant parts, Table 2 experiment): 86%
